In article PMC9718779, “Discrete LAT condensates encode antigen information from single pMHC:TCR binding events” (Nature Communications, 2022):

Tested on: LAT condensation in primary mouse T cells
Assay: Ligand potency for LAT condensation (cumulative distinct LAT condensates per cell)
Format: cell-based
From the text: Single-molecule TIRF images are taken at the same power dosage (power*exposure) , either by high laser illumination intensity (8 mW) and short exposure time (25 ms) or by low laser illumination intensity (0.4 mW) and long exposure time (500 ms). Single-molecule TIRF images of long exposure time (500 ms) were collected every 2 to 4 s to localize single pMHC-TCR using a laser illumination intensity of 0.4 mW. LAT-eGFP was monitored at 0.4 mW every 2 to 4 s. When cells were imaged to measure LAT condensation only, the cells were imaged as they landed, or within 60 s of landing, for a duration of 300 s. Cells imaged for NFAT-mCherry was done by epifluorescence using 150-ms exposure time every 50 s at 3 and 6 μm above the coverslip to monitor NFAT dynamics. NFAT monitoring continued for 30 min unless otherwise stated.
LAT condensates were initially tracked with TrackMate’s automated workflows and then each track was manually adjusted for proper linking/detection. A pMHC binding event was considered productive if there existed a LAT condensate trajectory whose first frame of detection could be found within 250 nm of the binding event.
Data presented in Fig. 5 originated from T cells that were exposed to supported membranes containing 600 molecules μm^−2 of ICAM-1 and 0.5 molecules μm^−2 pMHC after loading MHC with one of the peptides from the panel. […]

ANERAELIAYLTQAAEK [T102E, null altered peptide]
rank of productivity in LAT condensate number (MCC, T102S, ER60, T102E, cumulative time-series Fig. 5b): least
LAT signal of null pMHC + ICAM-1 condition (versus ICAM-1 only): did not produce any LAT signal over background levels
